Experimental data reported in patent EP0402469B1, “CATECHOL COMPOUNDS, PROCESS FOR THEIR PREPARATION AND PHARMACEUTICAL PREPARATION CONTAINING SAME” (TERUMO KABUSHIKI KAISHA, priority 1988, dated 1989).

Test system: Wistar type male rat
Test: Activity to resist growth of ulcer (ethanol hydrochloric acid induced gastric injury)
Type: in vivo
Conditions: 30mg/kg orally, 1 hour before oral ethanol hydrochloric acid, ulcer index 1 hour later; for inhibition in vivo at 30 mg/kg: read-out: Ratio of inhibiting formation of ulcer (%)
Method: A Wistar type male rat (body weight 150 to 200 g) was fasted for 24 hours, then orally administered with a catechol compound according with the present invention and, on elapse of 1 hour thereafter, orally administered with ethanol hydrochloric acid (having 150 mM hydrochloric acid contained in 60% ethanol) at a rate of 0.5 ml/100 g of body weight.
After 1 hour following the oral administration of ethanol hydrochloric acid, the rat was sacrified with ether. The stomach was excited from the corpse, treated with formalin, and visually examined to measure lengths of injuries generated on the glanular part of the stomach. The total of injuries was reported as an ulcer index of the rat in question.
The term "ratio of inhibiting formation of ulcer (%)" as used in the table refers to a numerical value obtained by subtracting the ulcer index of a rat orally administered with a given catechol compound according with the present invention from the ulcer index of a rat not orally administered with catechol compound and multiplying the difference by 100.

| Structure (SMILES) | inhibition in vivo at 30 mg/kg [%] | Ratio of inhibiting formation of ulcer (%) |
| --- | --- | --- |
| CCCCCCCCCC(=O)CC(=O)C=Cc1ccc(O)c(O)c1 [Example 1, 1-(3,4-dihydroxyphenyl)-1-tetradecen-3,5-dione] | 82.4 | – |
| CCCCCCCCCC(=O)CC(=O)CCc1ccc(O)c(O)c1 [Example 2, 1-(3,4-dihydroxyphenyl)-3,5-tetradecane dione] | 92.1 | – |
| CCCCCCCCCC(O)CC(=O)CCc1ccc(O)c(O)c1 (stereo not drawn) [Example 4, 1-(3,4-hydroxyphenyl)-5-hydroxytetradecan-3-one] | – | 84.4 |
| CCCCCCCC(=O)CC(=O)C=Cc1ccc(O)c(O)c1 [Example 7, 1-(3,4-dihydroxyphenyl)-1-dodecen-3,5-dione] | 85.7 | – |
| CCCCCCCC(=O)CC(=O)CCc1ccc(O)c(O)c1 [Example 8, 1-(3,4-dihydroxyphenyl)-3,5-dodecane dione] | 88.3 | – |
| CCCCCC(=O)CC(=O)C=Cc1ccc(O)c(O)c1 [Example 9, 1-(3,4-dihydroxyphenyl)-1-decen-3,5-dione] | 77.9 | – |
| CCCCCC(=O)CC(=O)CCc1ccc(O)c(O)c1 [Example 10, 1-(3,4-dihydroxyphenyl)-3,5-decane dione] | 84.6 | – |
| CCCC(=O)CC(=O)C=Cc1ccc(O)c(O)c1 [Example 11, 1-(3,4-dihydroxyphenyl)-1-octen-3,5-dione] | 58.7 | – |
| CCCC(=O)CC(=O)CCc1ccc(O)c(O)c1 [Example 12, 1-(3,4-dihydroxyphenyl)-3,5-octadione] | 81.8 | – |
